Results reported in patent US20240327415A1, “Multicomponent Complexes, Including Salts, Crystalline Forms, and Hydrates and Solvates of ENT1 Inhibitors” (iTeos Belgium SA, priority 2023, published 2024).
Marks after values point to notes of the source that are not given here. Values belong to the compound of their own block, whether it stands above or below them.

Columns and labels:
[1] = salt screen, XRPD of damp, dried and 40° C./75% RH stored samples (Salt Preparation Methods 1 and 2); format: physicochemical; set-up: key to XRPD Analysis Damp/Dry: A = amorphous; Evap. = isolated via evaporation
Description: (§1) Salt Preparation Method 1: Approximately 25 mg of Compound 1 (free base) was weighed out into 1.5 mL screw-cap vials and a stirrer bar was added. For solid counterions, the appropriate amount of acid (1.0 or 2.0 equiv.) was weighed into separate 1.5 mL screw-cap vials. 100 μL of the appropriate solvent system was added to both the Compound 1 and the solid counterions. Stock solutions of liquid counterions were prepared, such that 100 μL contained 1.0 or 2.0 equiv. of acid. See counterion and solvent lists in Table 60 and Table 61 respectively.
(§2) The samples were stirred at 40° C. for 5-10 min and then the acid solutions were added to Compound 1, rinsing out the transfer vial with a further 50 μL of solvent. […] Experiments were temperature cycled between 40° C. and 5° C. (1 h hold; 0.1° C./min ramp/cool) for ca. 24-68 h. Anti-solvent addition (ASA) was carried out to slurries at 5° C. then experiments were heated to 30° C. over 1 h. ASA was carried out at 30° C. or 40° C. where clear solutions or gums were observed.
(§3) Temperature cycling was then continued for ca. 16-69 h, followed by further ASA and temperature cycling if required. Material was isolated at 5° C. and analyzed damp by XRPD. All isolated material was dried under vacuum at ca. 40° C. for ca. 17-91 h then re-analyzed by XRPD. The XRPD plate was stored at 40° C./75% RH for 24-48 h and then samples re-analyzed. Solutions were stored uncapped at ambient temperature to evaporate. Any residual solids were analyzed by XRPD.
(§4) Salt Preparation Method 2: The general procedure adopted in preparing the potential salts is outlined below. A known mass of Compound 1 (free base) and a known volume of the appropriate solvent system were added to 20 mL scintillation vials. The required mol. equiv. of the appropriate counterions were added to the vials as solutions or slurries in the corresponding solvent system.
(§5) The experiments were stirred at 40° C. for ca. 1 h, and then temperature cycled between 40° C. and 5° C. with 0.1° C./min ramp and 1 h hold between each step. Anti-solvent additions and subsequent slurrying at 5° C. were employed in order to facilitate crystallization. […] The damp and dried solids were subsampled and analyzed by XRPD. Where applicable, the dried solids were stored at 40° C./75% RH for 24-48 h in order to improve the crystallinity and/or facilitate solid form conversion to the desired form.

[2] = as above; format: physicochemical; set-up: key: A = amorphous; Evap. = isolated via evaporation
Description: as §1, §2, §3, §4, §5

[3] = as above; format: physicochemical; set-up: key: A = amorphous; PC = poorly crystalline; *= predominantly; 1 = Form 1 Compound 1 benzoate; 2 = Form 2 Compound 1 benzoate; 3 = Form 3 Compound 1 benzoate; conditions: Benzoic acid, 1 equiv.
Description: as §1, §2, §3, §4, §5

ENT1 = biological target: T1, ENT1 (Homo sapiens, UniProt Q99808); experiment: ENT1 activity: intracellular uptake of 5-Ethynyl-Uridine (5EU) in whole blood, CD19 positive cells, flow cytometry; format: cell-based; conditions: 5EU 60 min at 37° C.
T1 construct: endogenous in cells; host or cells: CD19-positive cells (B cells) in whole blood from healthy donors
T1 sequence (Q99808 1-456): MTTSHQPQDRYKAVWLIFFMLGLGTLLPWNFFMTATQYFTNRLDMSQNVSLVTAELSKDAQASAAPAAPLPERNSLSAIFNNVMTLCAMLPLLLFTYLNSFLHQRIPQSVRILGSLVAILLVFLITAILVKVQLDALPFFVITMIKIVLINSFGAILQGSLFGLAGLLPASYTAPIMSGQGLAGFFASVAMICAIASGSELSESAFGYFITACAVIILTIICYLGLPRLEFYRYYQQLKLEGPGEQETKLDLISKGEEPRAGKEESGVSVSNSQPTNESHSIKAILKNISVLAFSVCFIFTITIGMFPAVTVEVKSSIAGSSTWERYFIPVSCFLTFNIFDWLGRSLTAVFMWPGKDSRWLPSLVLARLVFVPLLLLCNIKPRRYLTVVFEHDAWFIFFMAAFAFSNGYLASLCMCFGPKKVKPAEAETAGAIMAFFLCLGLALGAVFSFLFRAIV
Description: Example 20-ENT1 Activity of Crystalline Form 2 Compound 1 di(hydrogen sulfate) trihydrate compared to Compound 1 (free base)-Initial and after Six-Month Storage: (1) Initial time: Whole blood from 8 healthy donors was incubated with 5-Ethynyl-Uridine (5EU, CAS #: 69075-42-9, Jena Bioscience) for 60 min at 37° C., in the absence or presence of freshly suspended 1 μM Compound 1 (free base) or 1 μM Form 2 Compound 1 di(hydrogen sulfate) trihydrate. Intracellular uptake of 5EU through ENT1 transporters was assessed by standard flow cytometry and ENT1 activity was determined.
In FIG. 101, the data are expressed as % of ENT1 activity in untreated CD19 cells, arbitrary set at 100%, and are the means±SD of three independent experiments. Statistical analysis was performed using one-way analysis of variance (ANOVA) followed by Tukey's post hoc analysis with Prism 10.1.2 software (GraphPad Software). *: p<0.0001 vs. untreated B cells; ns: non-significant.
(2) Six months: Compound stability was evaluated on suspended solutions of Compound 1 (free base) or Form 2 Compound 1 di(hydrogen sulfate) trihydrate that were stored at −20° C. for 6 months. On the day of the experiment, whole blood from 3 healthy donors was incubated with 5-Ethynyl-Uridine (5EU, CAS #: 69075-42-9, Jena Bioscience) for 60 min at 37° C., in the absence or presence of either 1 μM Compound 1 (free base) or 1 μM Form 2 Compound 1 di(hydrogen sulfate) trihydrate of 6-month-old solutions. Intracellular uptake of 5EU through ENT1 transporters was assessed by standard flow cytometry and ENT1 activity was determined.
In FIG. 102, the data are expressed as % of ENT1 activity in untreated CD19 cells, arbitrary set at 100%, and are the means±SD. Statistical analysis was performed using two-way analysis of variance (ANOVA) with Prism 10.1.2 software (GraphPad Software). *: p<0.05 vs. untreated B cells; **: p<0.01 vs. untreated B cells; ns: non-significant.

[4] = hydration mapping studies (slurries at different water activities, Example 17); format: physicochemical; set-up: key to XRPD, hydration studies - dried samples: A: amorphous; Crystalline Form 10 mono(hydrogen sulfate)
Description: Example 17—Hydration Mapping Studies-Crystalline Form 2 Compound 1 di(hydrogen sulfate) trihydrate, Crystalline Form 3 Compound 1 di(hydrogen sulfate), and Blend: The effects of different water activities on crystalline Form 2 Compound 1 di(hydrogen sulfate) trihydrate, crystalline Form 3 Compound 1 di(hydrogen sulfate) and a blend of the two were investigated. The “blend” was prepared by mixing crystalline Form 2 Compound 1 di(hydrogen sulfate) trihydrate and crystalline Form 3 Compound 1 di(hydrogen sulfate) in a 1:1 ratio. To the vials containing the required solid material, the appropriate solvent system was added to form slurries. The slurry samples were stirred at the required temperatures during and after the solvent addition. Where dissolution was observed post-solvent addition, additional solid was added to re-saturate the sample. After stirring at the required temperature for 48 hours, the residual solids left in the vials were analyzed by XRPD to assess the solid forms. The analyzed samples were then dried on the XRPD plate under reduced pressure at 40° C. for 24 hr. The dried samples were analyzed by XRPD.

[5] = salt screen, XRPD of damp, dried and 40° C./75% RH stored samples (Salt Preparation Methods 1 and 2); format: physicochemical; set-up: key: A = amorphous; 1 = Form 1 Compound 1 hydrogen chloride; PC = poorly crystalline; conditions: AS Heptane
Description: as §1, §2, §3, §4, §5

[6] = as above; format: physicochemical; set-up: key: A = amorphous; PC = poorly crystalline; 1 = Form 1 Compound 1 hydrogen phosphate; 2 = Form 2 Compound 1 hydrogen phosphate; 3 = Form 3 Compound 1 hydrogen phosphate; 4 = Form 4 Compound 1 hydrogen phosphate; conditions: Phosphoric acid, 1 equiv.
Description: as §1, §2, §3, §4, §5

[7] = Benzoic acid, 1 equiv., Ethanol, AS Heptane
[8] = Benzoic acid, 1 equiv., MEK, AS Heptane
[9] = Benzoic acid, 1 equiv., THF, AS Heptane
[10] = Hydrochloric acid, 2 equiv., Acetonitrile, AS tBME
[11] = Hydrochloric acid, 2 equiv., Ethyl acetate, AS Heptane
[12] = Hydrochloric acid, 2 equiv., IPA:H2O (75:25% v/v), AS tBME
[13] = Hydrochloric acid, 2 equiv., MEK, AS Heptane
[14] = Hydrochloric acid, 2 equiv., THF, AS Heptane
[15] = Hydrochloric acid, 2 equiv., Ethanol*
[16] = Phosphoric acid, 1 equiv., Acetonitrile, AS tBME
[17] = Phosphoric acid, 1 equiv., IPA:H2O (75:25% v/v), AS tBME
[18] = Phosphoric acid, 1 equiv., Ethyl acetate

Compound: O=C(O)c1ccccc1 [Benzoic acid, 1 equiv.]
XRPD Analysis Damp/Dry ([1]; Benzoic acid, 1 equiv., Acetonitrile, AS BME, (evap.)): A (evap.)
XRPD Analysis 40° C. 75% RH [1, 7]: 2 + 3
XRPD Analysis Damp [1, 7]: 2*
XRPD Analysis 40° C. 75% RH ([1]; Benzoic acid, 1 equiv., IPA:H2O (75:25% v/v), AS tBME): 2 + 3
XRPD Analysis 40° C. 75% RH [1, 8]: 1 + 3
XRPD Analysis Damp [1, 8]: 1*
XRPD Analysis Dry [1, 8]: 1, PC
XRPD Analysis Damp [1, 9]: 1 + 2
XRPD Analysis Dry [2, 7]: A
XRPD Analysis Dry [2, 9]: A
XRPD Analysis 40° C. 75% RH ([3]; Ethyl acetate, AS Heptane): 1
XRPD Analysis Damp ([3]; Ethyl acetate, AS Heptane): 1
XRPD Analysis Dry ([3]; Ethyl acetate, AS Heptane): 1
XRPD Analysis Damp ([3]; IPA:H2O (75:25% v/v), AS tBME): 2
XRPD Analysis Dry ([3]; IPA:H2O (75:25% v/v), AS tBME): 2
XRPD Analysis 40° C. 75% RH ([3]; THF, AS Heptane): 3

Compound: COc1cc(C(=O)O[C@@H]2CCCOc3cc(cc(OC)c3OC)C(=O)NCCCN3CCCN(CC2)CC3)cc(OC)c1OC [Compound 1, (16R)-9,10-dimethoxy-6-oxo-12-oxa-1,5,19-triazatricyclo[17.3.2.1^7,11]pentacosa-7(25), 8,10-trien-16-yl 3,4,5-trimethoxybenzoate]
decrease of ENT1 activity compared to untreated CD19 positive cells (ENT1; 1 μM of solutions stored at −20° C. for 6 months, whole blood from 3 healthy donors): No significant effect
decrease of ENT1 activity compared to untreated CD19 positive cells (ENT1; 1 μM, freshly suspended, whole blood from 8 healthy donors): 49.8%

Compound: COc1cc(C(=O)O[C@@H]2CCCOc3cc(cc(OC)c3OC)C(=O)NCCCN3CCCN(CC2)CC3)cc(OC)c1OC.O=S(=O)(O)O.O=S(=O)(O)O [blended material]
XRPD, hydration studies - dried samples ([4]; 50° C., Acetonitrile:Water, aw 0.9, dried 40° C. reduced pressure 24 hr): M10
solid form by XRPD after slurrying ([4]; acetonitrile:water solvent systems with aw≤0.5, 48 hours): some crystalline Form 3 Compound 1 di(hydrogen sulfate) was retained
solid form by XRPD after slurrying ([4]; acetonitrile:water systems with aw>0.5, 48 hours): Crystalline Form 2 Compound 1 di(hydrogen sulfate) trihydrate was observed
solid form by XRPD after slurrying ([4]; all the 2-propanol:water solvent systems, 48 hours): Crystalline Form 2 Compound 1 di(hydrogen sulfate) trihydrate was also observed

Compound: Cl [Hydrochloric acid, 2 equiv.]
XRPD Analysis 40° C. 75% RH ([1]; Hydrochloric acid, 2 equiv., Ethanol*, AS Heptane): 1 (PC)
XRPD Analysis 40° C. 75% RH [2, 10]: A
XRPD Analysis Damp [2, 10]: A
XRPD Analysis Dry [2, 10]: A
XRPD Analysis 40° C. 75% RH [2, 11]: A
XRPD Analysis Damp [2, 11]: A
XRPD Analysis Dry [2, 11]: A
XRPD Analysis 40° C. 75% RH [2, 12]: A
XRPD Analysis Damp [2, 12]: A
XRPD Analysis Dry [2, 12]: A
XRPD Analysis 40° C. 75% RH [2, 13]: A
XRPD Analysis Damp [2, 13]: A
XRPD Analysis Dry [2, 13]: A
XRPD Analysis 40° C. 75% RH [2, 14]: A
XRPD Analysis Damp [2, 14]: A
XRPD Analysis Dry [2, 14]: A
XRPD Analysis Damp [5, 15]: 1
XRPD Analysis Dry [5, 15]: 1

XRPD Analysis Damp [2, 16]: A
XRPD Analysis Dry [2, 16]: A
XRPD Analysis 40° C. 75% RH [2, 17]: A
XRPD Analysis Damp [2, 17]: A
XRPD Analysis Dry [2, 17]: A
XRPD Analysis Damp [5, 18]: PC
XRPD Analysis Dry [5, 18]: PC
XRPD Analysis 40° C. 75% RH ([6]; Acetonitrile, AS tBME): 4
XRPD Analysis 40° C. 75% RH ([6]; Ethanol, AS Heptane): 1
XRPD Analysis Damp ([6]; Ethanol, AS Heptane): 1
XRPD Analysis Dry ([6]; Ethanol, AS Heptane): 1
XRPD Analysis 40° C. 75% RH ([6]; Ethyl acetate, AS Heptane): 2
XRPD Analysis 40° C. 75% RH ([6]; MEK, AS Heptane): 2
XRPD Analysis Damp ([6]; MEK, AS Heptane): 3
XRPD Analysis Dry ([6]; MEK, AS Heptane): 2
XRPD Analysis 40° C. 75% RH ([6]; THF, AS Heptane): 1
XRPD Analysis Damp ([6]; THF, AS Heptane): 1
XRPD Analysis Dry ([6]; THF, AS Heptane): 1
Compound: O=P(O)(O)O [Phosphoric acid, 1 equiv.]
